Results: patent US11549123B2, “Plant EPSP synthases and methods of use” (PIONEER HI-BRED INTERNATIONAL, INC., priority 2015, dated 2023)
Positions count from the first letter of the chain named.

Legend:
Format in all cases: biochemical
[1] = biological target: T1, Oryza sativa EPSPS, native, SEQ ID NO:7 (Oryza sativa, UniProt Q93VK6); assay: EPSPS substrate saturation kinetics, native rice
T1 sequence (Q93VK6 64-511): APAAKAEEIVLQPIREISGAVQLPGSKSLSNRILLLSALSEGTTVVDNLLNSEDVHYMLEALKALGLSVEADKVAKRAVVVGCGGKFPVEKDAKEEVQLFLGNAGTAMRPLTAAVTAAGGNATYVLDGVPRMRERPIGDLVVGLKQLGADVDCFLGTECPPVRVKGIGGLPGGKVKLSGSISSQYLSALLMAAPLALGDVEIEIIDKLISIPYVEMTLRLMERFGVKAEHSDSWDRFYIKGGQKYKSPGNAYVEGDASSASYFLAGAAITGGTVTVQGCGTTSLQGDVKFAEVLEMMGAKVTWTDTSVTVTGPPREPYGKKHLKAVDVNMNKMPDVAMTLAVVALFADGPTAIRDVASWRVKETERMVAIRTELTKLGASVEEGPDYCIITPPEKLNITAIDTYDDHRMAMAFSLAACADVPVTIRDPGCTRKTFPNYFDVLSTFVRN
Experimental: (§1) EPSPS activity was determined by quantifying the phosphate generated from the EPSPS reaction. Release of inorganic phosphate was coupled to reaction with 2-amino-6-mercapto-7-methylpurine ribonucleoside, catalyzed by purine-nucleoside phosphorylase (M R Webb, Proc. Natl. Acad. Sci. 89:4884-4887, 1992). The absorbance change that occurs was monitored at 360 nm, where the extinction is 11,200 M^−1 cm^−1, with a Spectramax plate reader (Molecular Devices). To determine kinetic parameters, the varied substrate was present at seven concentrations (the eighth being the blank, containing no substrate) ranging from 4 to 400 uM and the unvaried substrate present at saturation. Six microliters of 50-fold concentrated stock solutions of the varied substrate were placed in the wells of the 96-well assay plate and reactions were started with the addition of a mixture containing 25 mM Hepes, pH 7, 100 mM KCl, 0.3 mM 2-amino-6-mercapto-7-methylpurine ribonucleosde, 1 uM (1 unit/ml) purine-nucleoside phosphorylase (Sigma N8264) and 200 uM of the non-varied substrate. Reactions were monitored with a Spectramax plate reader. The Michaelis-Menten kinetics protocol of the Spectramax software was customized for the substrate concentrations used. The software returns values of KM and Vmax using the Lineweaver-Burke transformation of the Michaelis-Menten equation. To determine kcat, Vmax (uM/min) was divided by the enzyme concentration (uM). […] KI was then calculated from the following form of the Michaelis-Menten equation for competitive inhibition: KI=KM[I]/(KM app−KM) KM approximates the dissociation constant of the enzyme-substrate complex while kcat is the rate of conversion of substrate to product when the substrate concentration is saturating. kcat/KM is a widely accepted parameter for catalytic efficiency when substrate concentration is low (˜KM). […] The parameter kcat/KM×KI is used to quantify both catalytic efficiency and insensitivity and thus the overall fitness of the enzyme.
Native EPSPS amino acid sequences of rice (Oryza sativa) (SEQ ID NO:7), sorghum (Sorghum halepense) (SEQ ID NO:8), and sunflower (Helianthus annus) (SEQ ID NO:9) including the chloroplast transit peptide sequences were assembled and analyzed for mapping the corresponding amino acid mutations from the maize 868-H6. If complete EPSPS sequences were not available, appropriate adjustments were made based on sequence alignments and conserved residue mapping.
ChloroP Prediction Server (Emanuelsson, O. et al. 1999. Protein Sci. 8(5):978-84) was used to approximate the amino terminus of the mature EPSPS proteins. […] The synthetic genes were cloned into a plasmid vector and expressed, purified and analyzed as described in Example 1.

[2] = biological target: T2, Zea mays EPSPS variant G-W at positions 103-107 (EPSPS-TGPW; T103G P107W) (Zea mays, UniProt O24566, P106W/T102G); assay: EPSPS substrate saturation kinetics, maize variant 103G 107W (EPSPS-TGPW)
T2 sequence (O24566 with tags, fused parts or gaps T102G/P106W): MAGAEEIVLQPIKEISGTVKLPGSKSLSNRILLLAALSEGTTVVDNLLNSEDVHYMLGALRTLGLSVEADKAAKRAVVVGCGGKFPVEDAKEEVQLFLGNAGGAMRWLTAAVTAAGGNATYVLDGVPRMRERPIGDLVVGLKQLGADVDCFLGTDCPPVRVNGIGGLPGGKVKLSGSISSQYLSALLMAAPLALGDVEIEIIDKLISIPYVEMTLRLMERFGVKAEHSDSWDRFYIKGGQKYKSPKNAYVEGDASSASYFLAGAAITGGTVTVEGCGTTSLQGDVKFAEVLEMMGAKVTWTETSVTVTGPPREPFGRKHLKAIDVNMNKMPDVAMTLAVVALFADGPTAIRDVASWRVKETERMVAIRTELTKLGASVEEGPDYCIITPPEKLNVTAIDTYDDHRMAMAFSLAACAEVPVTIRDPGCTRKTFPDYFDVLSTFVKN
Experimental: as §1
(§2) NNK-enabled saturation mutagenesis was performed at positions 103 and 107 in the maize EPSPS sequence, and transformed BL21 DE3 cells were screened as described above.

[3] = test system: Zea mays EPSPS variant G-W at positions 103-107 (EPSPS-TGPW; T103G P107W); assay: as above
Experimental: as §1, §2

[4] = biological target: T3, Zea mays EPSPS variant L-A at positions 103-107 (Zea mays, UniProt O24566, P106A/T102L); assay: EPSPS substrate saturation kinetics, maize variant 103L 107A
T3 sequence (O24566 with tags, fused parts or gaps T102L/P106A): T2 sequence (O24566 with tags, fused parts or gaps T102G/P106W) with G103L, W107A
Experimental: as §1, with “enzyme. […]” for “enzyme.”

[5] = PEP as substrate, glyphosate as inhibitor

SMILES | kcat ([1]; PEP varied) [s⁻¹] | Km ([1]; read-out: KM (PEP), PEP varied) [µM] | kcat ([2]; PEP varied) | catalytic efficiency (kcat/KM) relative to native maize EPSPS ([3]; PEP) [%] | higher KM for PEP ([3]; relative to native maize EPSPS) [fold] | lower kcat ([3]; relative to native maize EPSPS) [fold] | kcat ([4]; PEP varied) | Ki [1] [µM] | (kcat/KM)*KI [1, 5] | Ki [2] [µM] | (kcat/KM)*KI [2, 5] | less sensitive to glyphosate ([3]; relative to native maize EPSPS) | Ki [4] [µM] | (kcat/KM)*KI [4, 5]
C=C(OP(=O)(O)O)C(=O)O [PEP, phosphoenolpyruvate] | 30.97 | 12.6 | 379 | 5 | 5 | 4 | 125 | – | – | – | – | – | – | –
O=C(O)CNCP(=O)(O)O [glyphosate, N-phosphonomethylglycine] | – | – | – | – | – | – | – | 0.1 | 18 | 403 | 1862 | about 3,000 fold | 463 | 1143
